How the values were obtained:
Assay type in all cases: functional
[1] = system: Escherichia coli; assay: Antimicrobial activity against ESBL producing Escherichia coli isolated from patient bloodstream assessed as resistant isolate by Etest method
[2] = system: Escherichia coli; assay: Antimicrobial activity against ESBL producing Escherichia coli isolated from patient bloodstream assessed as resistant isolate by Etest method in presence of clavulanic acid
[3] = system: Escherichia coli; assay: Antimicrobial activity against ESBL producing Escherichia coli isolated from patient bloodstream assessed as resistant isolate by Etest method in presence of Tazobactam

Compound | Activity [1] | further results
NCC[C@H](O)C(=O)N[C@@H]1C[C@H](N)[C@@H](O[C@H]2O[C@H](CN)[C@@H](O)[C@H](O)[C@H]2O)[C@H](O)[C@H]1O[C@H]1O[C@H](CO)[C@@H](O)[C@H](N)[C@H]1O [AMIKACIN] | 0% | –
CC1(C)S[C@@H]2[C@H](NC(=O)[C@H](N)c3ccc(O)cc3)C(=O)N2[C@H]1C(=O)O [AMOXICILLIN] | – | Activity [2]: 30.2%
O=C(O)c1cn(C2CC2)c2cc(N3CCNCC3)c(F)cc2c1=O [CIPROFLOXACIN] | 92.2% | –
C[C@@H](O)[C@H]1C(=O)N2C(C(=O)O)=C(SCCNC=N)C[C@H]12 [IMIPENEM ANHYDROUS] | 0% | –
C[C@H]1COc2c(N3CCN(C)CC3)c(F)cc3c(=O)c(C(=O)O)cn1c23.C[C@H]1COc2c(N3CCN(C)CC3)c(F)cc3c(=O)c(C(=O)O)cn1c23.O [LEVOFLOXACIN] | 92.2% | –
C[C@@H](O)[C@H]1C(=O)N2C(C(=O)O)=C(S[C@@H]3CN[C@H](C(=O)N(C)C)C3)[C@H](C)[C@H]12 [MEROPENEM] | 0% | –
C[C@]1(Cn2ccnn2)[C@H](C(=O)O)N2C(=O)C[C@H]2S1(=O)=O [TAZOBACTAM] | – | Activity [3]: 15.5%
GENTAMICIN | 33.3% | –

— ChEMBL document CHEMBL1671616, “Bloodstream infections caused by extended-spectrum-beta-lactamase- producing Escherichia coli: risk factors for inadequate initial antimicrobial therapy” (2008)
